T/C data for 21 molecules are collected here from PubChem BioAssay AID328 (DTP/NCI, 2004).

Several values for one entry are separate records, joined by “and”; a condition that tells them apart may be missing. Equal entries are not always repeated. Inconclusive results and toxic doses are left out. Residues, ends and D or L forms follow the SMILES beside them. *: point of attachment. Bn = c1ccc(C*)cc1; For = O=C*

The assay relates to BDF1 mice, P388 leukemia ip, median survival T/C. Description: NCI In Vivo Anticancer Drug Screen. Data for tumor model P388 Leukemia (intraperitoneal) in B6D2F1 (BDF1) mice. To be noted: endpoint: median survival time, higher = longer survival. The method in brief: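 Compound-treated tumour-bearing mice were compared with vehicle-treated controls. Survival was recorded, and the value is the treated-group measurement divided by the control-group measurement (T/C).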

Where [1] appears, read: dose: 25.0 mg/kg/injection, schedule: Q01DX009 (ip), vehicle: saline.
Where [2] appears, read: dose: 25.0 mg/kg/injection, schedule: Q04DX003 (ip), vehicle: saline.
The mark [3] stands for this setting: dose: 50.0 mg/kg/injection, schedule: Q01DX009 (ip), vehicle: saline.
The mark [4] stands for this setting: dose: 100.0 mg/kg/injection, schedule: Q04DX003 (ip), vehicle: saline.
[5] abbreviates: dose: 12.5 mg/kg/injection, schedule: Q04DX003 (ip), vehicle: saline.
Setting [6] is: dose: 50.0 mg/kg/injection, schedule: Q04DX003 (ip), vehicle: saline.
Setting [7] is: dose: 50.0 mg/kg/injection, schedule: Q01DX009 (ip), vehicle: saline with Tween-80.
Where [8] appears, read: dose: 50.0 mg/kg/injection, schedule: Q04DX003 (ip), vehicle: saline with Tween-80.
Where [9] appears, read: dose: 100.0 mg/kg/injection, schedule: Q01DX009 (ip), vehicle: saline with Tween-80.
The mark [10] stands for this setting: dose: 100.0 mg/kg/injection, schedule: Q04DX003 (ip), vehicle: saline with Tween-80.
[11] abbreviates: dose: 200.0 mg/kg/injection, schedule: Q01DX009 (ip), vehicle: saline with Tween-80.
The mark [12] stands for this setting: dose: 200.0 mg/kg/injection, schedule: Q04DX003 (ip), vehicle: saline with Tween-80.
Setting [13] is: dose: 400.0 mg/kg/injection, schedule: Q01DX009 (ip), vehicle: saline with Tween-80.
The mark [14] stands for this setting: dose: 400.0 mg/kg/injection, schedule: Q04DX003 (ip), vehicle: saline with Tween-80.
The mark [15] stands for this setting: dose: 100.0 mg/kg/injection, schedule: Q04DX003 (ip), vehicle: saline sonified.
[16] abbreviates: dose: 200.0 mg/kg/injection, schedule: Q04DX003 (ip), vehicle: saline sonified.
The mark [17] stands for this setting: dose: 400.0 mg/kg/injection, schedule: Q04DX003 (ip), vehicle: saline sonified.
[18] abbreviates: dose: 100.0 mg/kg/injection, schedule: Q04DX003 (ip), vehicle: Klucel (hydroxypropylcellulose) (HPC).
Setting [19] is: dose: 200.0 mg/kg/injection, schedule: Q04DX003 (ip), vehicle: Klucel (hydroxypropylcellulose) (HPC).
The mark [20] stands for this setting: dose: 400.0 mg/kg/injection, schedule: Q04DX003 (ip), vehicle: Klucel (hydroxypropylcellulose) (HPC).

Consider `CCN1CC=CCC1`, for which the T/C was 95 % of control under setting [1]; 95 % of control and 104 % of control and 118 % of control under setting [2]; 109 % of control (dose: 35.0 mg/kg/injection, schedule: Q04DX003 (ip), vehicle: saline); 100 % of control under setting [3]; 86 % of control (dose: 75.0 mg/kg/injection, schedule: Q04DX003 (ip), vehicle: saline); 116 % of control (dose: 100.0 mg/kg/injection, schedule: Q01DX009 (ip), vehicle: saline). Under setting [4], the T/C was 109 % of control.

For the molecule `NC(CO)CSCc1ccccc1` (stereo unspecified), the T/C is 114 % of control under setting [5], 104 % of control under setting [2], 98 % of control under setting [6] and 97 % of control under setting [4].

Consider `COc1cccc(/C(C)=N\Nc2ccc([N+](=O)[O-])cc2[N+](=O)[O-])c1OC`, for which the T/C reads like this: under setting [7], 94 % of control; under setting [8], 100 % of control; under setting [9], 100 % of control; under setting [10], 102 % of control; under setting [11], 91 % of control; under setting [12], 102 % of control. Moreover, the T/C is 94 % of control under setting [13] and 97 % of control under setting [14].

As for `CCOC(=O)NCNC(=O)OCC`, the T/C runs as follows: under setting [15], 100 % of control; under setting [16], 108 % of control; under setting [17], 108 % of control.

As for `OCC1OC(Nc2ccccc2/C=N\O)C(O)C1O` (stereo unspecified), the T/C reads like this: under setting [9], 111 % of control; under setting [11], 94 % of control.

For `CCCCOCCN1CCN(CCCN2c3ccccc3Sc3ccc(C(F)(F)F)cc32)CC1`, the T/C is 111 % of control under setting [5], 112 % of control under setting [2] and 153 % of control under setting [6].

As for `Cc1cccc(-n2c(CC#N)n[nH]c2=S)c1`, the T/C was 96 % of control under setting [7] and 100 % of control under setting [11].

Consider `CC12CC3(O)CCC1CCC2C(=O)C3` (stereo unspecified), for which the T/C runs as follows: under setting [4], 118 % of control; (dose: 200.0 mg/kg/injection, schedule: Q04DX003 (ip), vehicle: saline) 109 % of control; (dose: 400.0 mg/kg/injection, schedule: Q04DX003 (ip), vehicle: saline) 122 % of control.

For the molecule `CC(C)CC(NC(=O)C(Cc1ccc(OCc2ccccc2)cc1)NC=O)C(=O)O` (stereo unspecified) (For-Tyr(Bn)-Leu-OH; configuration not given here), the T/C runs as follows: under setting [7], 110 % of control; under setting [9], 95 % of control and 100 % of control (2×); (dose: 100.0 mg/kg/injection, schedule: Q01DX009 (ip), vehicle: sodium bicarbonate) 90 % of control; under setting [10], 105 % of control; under setting [11], 86 % of control and 95 % of control and 110 % of control; (dose: 200.0 mg/kg/injection, schedule: Q01DX009 (ip), vehicle: sodium bicarbonate) 105 % of control. For the same molecule, the T/C runs as follows: under setting [12], 105 % of control; under setting [13], 90 % of control; under setting [14], 110 % of control.

For `ClC(Cl)(Cl)CC(Br)c1ccccc1` (stereo unspecified), the T/C reads like this: under setting [15], 91 % of control; under setting [16], 100 % of control; under setting [17], 100 % of control.

As to `C1CCCC2(CCC1)OCCO2`, the T/C is 94 % of control under setting [8]; 109 % of control under setting [9]; 100 % of control under setting [10]; 100 % of control under setting [11]; 115 % of control and 119 % of control under setting [12]; 109 % of control under setting [13]. Also, the T/C under setting [14] is 112 % of control and 120 % of control.

As for `Clc1ccc(C2(C3CCNCC3)CCCO2)cc1` (stereo unspecified), the T/C runs as follows: under setting [7], 106 % of control; under setting [9], 90 % of control.

As for `CCCCCCCCCC(=O)CCCCCCC`, the T/C was 100 % of control (dose: 50.0 mg/kg/injection, schedule: Q01DX009 (ip), vehicle: other); 100 % of control (dose: 100.0 mg/kg/injection, schedule: Q01DX009 (ip), vehicle: other); 100 % of control (dose: 100.0 mg/kg/injection, schedule: Q04DX003 (ip), vehicle: other); 104 % of control (dose: 118.0 mg/kg/injection, schedule: Q04DX003 (ip), vehicle: other); 109 % of control and 118 % of control (dose: 178.0 mg/kg/injection, schedule: Q04DX003 (ip), vehicle: other); 104 % of control (dose: 200.0 mg/kg/injection, schedule: Q01DX009 (ip), vehicle: other). Also, the T/C (dose: 266.0 mg/kg/injection, schedule: Q04DX003 (ip), vehicle: other) is 95 % of control; the T/C (dose: 400.0 mg/kg/injection, schedule: Q01DX009 (ip), vehicle: other) is 95 % of control; the T/C (dose: 400.0 mg/kg/injection, schedule: Q04DX003 (ip), vehicle: other) was 109 % of control and 118 % of control.

Regarding `C/C=C/C[P+](C)(c1ccccc1)c1ccccc1`, the T/C (dose: 0.2 mg/kg/injection, schedule: Q01DX009 (ip), vehicle: saline) is 104 % of control; the T/C (dose: 0.4 mg/kg/injection, schedule: Q01DX009 (ip), vehicle: saline) was 103 % of control; the T/C (dose: 0.8 mg/kg/injection, schedule: Q01DX009 (ip), vehicle: saline) was 104 % of control.

In the case of `CCCCC[C@H](CN(C)C)[C@H](O)/C=C/c1ccc(Cl)cc1`, the T/C is, setting by setting: (dose: 12.5 mg/kg/injection, schedule: Q01DX009 (ip), vehicle: saline) 101 % of control; under setting [1], 112 % of control; under setting [3], 108 % of control.

For `CN(C)c1ccc(/C=C/c2ccnc3c(O)ccc(O)c23)cc1`, the T/C reads like this: under setting [7], 112 % of control; under setting [9], 124 % of control.

In the case of `O=[N+]([O-])c1ccccc1NC1c2ccccc2Oc2ccccc21`, the T/C reads like this: under setting [18], 116 % of control; under setting [19], 122 % of control; under setting [20], 122 % of control.

Take `O=C1CCS(=O)(=O)c2ccccc21`: the T/C is 101 % of control (dose: 6.25 mg/kg/injection, schedule: Q01DX009 (ip), vehicle: saline with Tween-80); 117 % of control (dose: 12.5 mg/kg/injection, schedule: Q01DX009 (ip), vehicle: saline with Tween-80); 105 % of control (dose: 25.0 mg/kg/injection, schedule: Q01DX009 (ip), vehicle: saline with Tween-80); 98 % of control under setting [7].

As for `C[C@]12CC[C@@H]3c4ccc(O)cc4CC[C@H]3[C@@H]1CC[C@@H]2O`, the T/C is, setting by setting: (dose: 100.0 mg/kg/injection, schedule: Q01DX009 (ip), vehicle: Klucel (hydroxypropylcellulose) (HPC)) 90 % of control; under setting [18], 100 % of control; under setting [19], 100 % of control; (dose: 400.0 mg/kg/injection, schedule: Q01DX009 (ip), vehicle: Klucel (hydroxypropylcellulose) (HPC)) 95 % of control; under setting [20], 115 % of control.

As for `O=[n+]1c2ccccc2n([O-])c2ccccc21.[Cl][Cu][Cl]`, the T/C runs as follows: (dose: 6.25 mg/kg/injection, schedule: Q04DX003 (ip), vehicle: saline with Tween-80) 101 % of control; (dose: 12.5 mg/kg/injection, schedule: Q04DX003 (ip), vehicle: saline with Tween-80) 116 % of control.

On to `Cc1ccc(C(=O)NCCCOc2ccc([N+](=O)[O-])cc2Cl)cc1S(=O)(=O)F`, for which the T/C is, setting by setting: under setting [7], 98 % of control; under setting [9], 114 % of control; under setting [10], 99 % of control; under setting [11], 98 % of control; under setting [12], 99 % of control; under setting [13], 107 % of control. Under setting [14], the T/C was 90 % of control.
